Assay results published in US10568886B2, “Targeting Cyb5R3” (University of Pittsburgh—Of the Commonwealth System of …, priority 2014, dated 2020).

Experiments:
[1] = molecular target: T1, purified human CyB5R3 (Homo sapiens, UniProt P00387); assay: NADH-ferricyanide reductase activity inhibition assay with purified Cyb5R3; assay type: biochemical; settings: for Cyb5R3 inhibitory activity, SAR trend of phenyl substituents: para position: carbon, chlorine, bromine
T1 construct: His6 (N); made in house; host or cells: E. coli SoluBL21 (Genlantis)
T1 sequence (P00387 1-301): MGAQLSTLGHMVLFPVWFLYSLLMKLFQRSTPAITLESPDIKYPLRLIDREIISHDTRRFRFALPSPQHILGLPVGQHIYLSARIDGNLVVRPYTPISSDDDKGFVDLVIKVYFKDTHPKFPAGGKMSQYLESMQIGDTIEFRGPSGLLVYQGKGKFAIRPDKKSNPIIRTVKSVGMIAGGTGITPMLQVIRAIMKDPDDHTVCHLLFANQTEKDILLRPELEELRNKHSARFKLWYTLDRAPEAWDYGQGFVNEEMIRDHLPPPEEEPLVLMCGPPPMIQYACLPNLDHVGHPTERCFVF
Protocol: FIG. 13. […] Primary screen using purified human CyB5R3 was incubated with each compound (500 μM) followed by activity measurements with an NADH-ferricyanide reductase assay. […] Purified proteins were prepared as previously described in Sparacino-Watkins et al. Briefly, human Cyb5R3 gene was cloned into the pET28a plasmid containing a His6 tag on the N-terminus of Cyb5R3. The plasmid was transformed into SoluBL21 cells (Genlantis) and protein purification was carried out as previously described. […] Chromatographic separation was conducted with an Äkta-Purifier FPLC (GE Healthcare Life Sciences, USA) running Unicorn software version 5.1. Metal affinity chromatography resin, Ni-NTA superflow (Qiagen), was packed into a XK 26/20 column (GE). Protein identity was confirmed with liquid chromatography and tandem mass spectrometry (LC-MS/MS, University of Pittsburgh Genome and Protein Core Facilities). The NADH-ferricyanide reductase activity for purified Cyb5R3 was assayed by spectrophotometric measurements using the rate of potassium ferricyanide reduction at 420 nm, according to Strittmatter and […]. […] The reaction was started by addition of cofactor NADH and reduction of ferricyanide was followed for 2 min by recording the absorbance decrease at 420 nm using Cary 50 spectrophotometer and small glass cuvettes with a 0.2 cm path length. Since NADH has partial reduction power independent of Cyb5R3, the reaction rate was corrected by subtracting the reaction rate of ferricyanide in the absence of enzyme. The enzyme activity was calculated using the extinction coefficient of 1.02 mM^-1 cm^-1 for the difference in absorbance between reduced and oxidized form of ferricyanide. In order to observe the inhibitory effect of each Cyb5R3 small molecule inhibitor, the compounds were pre-incubated with Cyb5R3 at 37° C. for 15 minutes followed by measurements in NADH-ferricyanide reductase activity as described above.

[2] = tested on: oxidized sGC; assay: Purified Cyb5R3/oxidized sGC cGMP assay stimulated with Bay 58-2667; assay type: biochemical; settings: 100 nM Bay 58-2667, in the presence of Cyb5R3
Protocol: FIG. 4. Purified Cyb5R3 directly reduces oxidized sGC resulting in limited stimulation by the sGC activator Bay 58-2667. Purified Cyb5R3, Cyb5b and oxidized sGC were mixed and incubated in trienthanolamine buffer, DTT (positive control), ZINC 747 (Cyb5R3 inhibitor), +/−NADH (required co-factor for Cyb5R3) in the absence of oxygen. Samples were then combined with GTP, and Mn^2+ followed by stimulation with 100 nM Bay 58-2667. After 5 min, reactions were stopped and samples were measured for cGMP. Quantification of cGMP is shown in the graph (n=2). Error bars represent s.e.m.

[3] = tested on: primary rat VSMs; assay: Rescue of sGC protein degradation by Bay 58-2667 in VSMs (Western blot); assay type: cell-based; settings: Cyb5R3 knockdown or ZINC 747 treated VSMs
Excerpt: FIG. 7. Bay 58-2667 rescues sGC protein degradation following Cyb5R3 knockdown or activity inhibition. a, Western blot analysis for sGC expression in primary rat VSMs treated with and without Bay 58-2667 following Cyb5R3 knockdown or with ZINC 39395747 (b). Quantification of sGC expression is shown in the graph below (n=2). Error bars represent s.e.m.
It was therefore tested if Bay 58 2667 could rescue the effects caused by decreased Cyb5R3 expression and activity.

[4] = tested on: sGC-Cyb5R3 macromolecular complexes; assay: Proximity ligation assay for sGC-Cyb5R3 complexes in VSMs; assay type: cell-based; settings: ODQ 10 μM, 10 min, primary rat aortic VSMs
Excerpt: FIG. 2. […] Cells were then subjected to a proximity ligation assay and imaged using confocal microscopy for sGC-Cyb5R3 macromolecular complexes (red punctates). Quantification of complexes per nuclei is shown in graph (n=3). **** indicates significance of <0.0001 and error bars are s.e.m. […] Following ODQ treatment, VSMs were fixed and subjected to a proximity ligation assay (PLA) to determine the association between oxidized sGC and Cyb5R3.

[5] = molecular target: T1, purified human CyB5R3; assay: NADH-ferricyanide reductase activity inhibition assay with purified Cyb5R3; assay type: biochemical; settings: 50 μM of each compound
[6] = tested on: Cyb5R3; settings: previous studies; cited from earlier work

CCCCCOc1cc(=O)[nH]c(=S)[nH]1 [ZINC13957379]
inhibition of CyB5R3, primary screen ([1]; 500 μM of each compound): 100%

Cc1ccc(SCc2cc(=O)[nH]c(=S)[nH]2)cc1 [ZINC06493891]
Cyb5R3 inhibitory activity, SAR trend of phenyl substituents [1]: activity increases with atomic mass

O=C(O)CCCCN(CCc1ccccc1OCc1ccc(CCc2ccccc2)cc1)Cc1ccc(C(=O)O)cc1 [Bay 58-2667, cinaciguat]
cGMP production on Bay 58-2667 stimulation [2]: does not increase cGMP production | sGC protein levels [3]: restoration of sGC protein levels

C[C@@H]1N=C(CSc2ccccc2)CC(=O)N1 [ZINC05774833]
inhibition of CyB5R3, primary screen ([1]; 500 μM of each compound): abolished all inhibitory effects

O=c1onc2cnc3ccccc3n12 [ODQ, 1H-(1,2,4)oxadiazolo[4,3-a]quinoxalin-1-one]
number of sGC-Cyb5R3 macromolecular complexes [4]: increases number of macromolecular complexes

O=c1cc(CSc2ccccc2)[nH]c(=S)[nH]1 [ZINC05626394]
inhibition of CyB5R3, primary screen ([1]; 500 μM of each compound): 100% | inhibition of CyB5R3, secondary screen [5]: 100%

O=c1cc(CSc2ccc(Br)cc2)[nH]c(=S)[nH]1 [ZINC15987502]
Cyb5R3 inhibitory activity, SAR trend of phenyl substituents [1]: activity increases with atomic mass

CC(C)SCc1cc(=O)[nH]c(=S)[nH]1 [ZINC31773411]
inhibition of CyB5R3, primary screen ([1]; 500 μM of each compound): 100%

CCCc1cc(=O)[nH]c(=S)[nH]1 [PTU, propylthiouracil, reference compound]
inhibition at 500 µM ([1]; 500 μM of each compound, read-out: inhibition of CyB5R3, primary screen): ~100% | inhibition of CyB5R3, secondary screen [5]: little inhibition | concentration showing inhibition of Cyb5R3 [6]: approximately 275 μM

O=c1cc(CSc2ccccc2)[nH]c(=O)[nH]1 [ZINC17744101]
inhibition of CyB5R3, primary screen ([1]; 500 μM of each compound): 100% | inhibition of CyB5R3, secondary screen [5]: 50%
